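These data come from cells grown in 96-well plates and exposed to compound for 48 hours at five concentrations. GI50 is the concentration that inhibits growth by half. The concentration for full growth arrest is given as TGI.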
Tests used:
Experiment in all cases: growth of human tumour cells (NCI), 48 h
SN12C renal = tested on: SN12C renal
SK-OV-3 ovarian = tested on: SK-OV-3 ovarian
DU-145 prostate = tested on: DU-145 prostate
HCT-15 colon = tested on: HCT-15 colon
SNB-75 CNS = tested on: SNB-75 CNS
TK-10 renal = tested on: TK-10 renal
MCF7 breast = tested on: MCF7 breast
NCI-H226 lung = tested on: NCI-H226 lung
OVCAR-3 ovarian = tested on: OVCAR-3 ovarian
HL-60(TB) leukemia = tested on: HL-60(TB) leukemia

SMILES | GI50 (SN12C renal) | TGI (SN12C renal) | GI50 (SK-OV-3 ovarian) | TGI (SK-OV-3 ovarian) | GI50 (DU-145 prostate) | TGI (DU-145 prostate) | GI50 (HCT-15 colon) | TGI (HCT-15 colon) | GI50 (SNB-75 CNS) | TGI (SNB-75 CNS) | GI50 (TK-10 renal) | TGI (TK-10 renal) | GI50 (MCF7 breast) | TGI (MCF7 breast) | GI50 (NCI-H226 lung) | TGI (NCI-H226 lung) | GI50 (OVCAR-3 ovarian) | TGI (OVCAR-3 ovarian) | GI50 (HL-60(TB) leukemia) | TGI (HL-60(TB) leukemia)
COc1ccc(CCN2CCCN3C2=Nc2ccccc2S3(=O)=O)cc1 | 0.707 µM | > 100 µM | 0.552 µM | > 100 µM | 0.496 µM | > 100 µM | 0.342 µM | > 100 µM | 0.296 µM | > 100 µM | 91 µM | > 100 µM | 0.329 µM | > 100 µM | 8.25 µM | > 100 µM |  |  |  | 
CN(C)CCCNC(=O)c1ccc2oc3cc4ccccc4c(=O)n3c2c1 | 45.6 µM | > 50 µM | > 50 µM | > 50 µM | 36.7 µM | > 50 µM | 23.8 µM | > 50 µM | 12.6 µM | 33.1 µM | 10.3 µM | > 50 µM | > 50 µM | > 50 µM |  |  | 8.7 µM | > 50 µM | 29.8 µM | > 50 µM
CCOC(=O)Cc1nc2ccccc2s1 |  | 30.5 µM |  | > 100 µM |  |  |  |  |  | 94.1 µM |  | 55 µM |  |  |  | 49.2 µM |  | > 10 µM |  | 43.9 µM
N=C(N)/N=C(\N)c1c(-c2cc(O)ccc2O)nc2sccn12 | 19.4 µM | 39.7 µM | > 100 µM | > 100 µM | 16.8 µM | 30.5 µM | 26 µM | 74.8 µM |  |  | 17.9 µM | 36.4 µM | 37.8 µM | > 100 µM | > 100 µM | > 100 µM | 21.8 µM | 54.8 µM |  | 
NC(=NCCCC1(c2ccccc2)CCCC1)Nc1ccc(Cl)cc1 | 1.77 µM | 3.37 µM | 2.43 µM | 5.59 µM | 1.8 µM | 3.29 µM | 1.75 µM | 3.29 µM | 1.07 µM | 2.31 µM | 1.38 µM | 2.75 µM | 1.65 µM | 3.19 µM |  |  | 1.82 µM | 3.35 µM | 1.73 µM | 3.67 µM
COc1cc2c(c(OC)c1O)-c1ccc(OC)c(=O)cc1[C@@H](NC(=O)C(F)(F)F)CC2 |  | > 100 µM |  | > 100 µM |  | > 100 µM |  | > 100 µM |  |  |  | > 100 µM |  | > 100 µM |  |  |  | 0.151 µM |  | 2.55 µM
COc1ccccc1/C=C/C(=O)c1c(O)cc2occc2c1OC | > 100 µM | > 100 µM | 21.3 µM | 84.4 µM | 23.5 µM | > 100 µM | > 100 µM | > 100 µM | 7.49 µM | 26.3 µM | 21.9 µM | 62.7 µM | 9.56 µM | > 100 µM | 25.1 µM | > 100 µM | 47.4 µM | > 100 µM |  | 
CCOC(CCCNCCCn1c2c(c3cc(OC)c(OC)cc3c1=O)C(=O)c1cc3c(cc1-2)OCO3)OCC | 5.04 µM | 10.8 µM | 6.47 µM | 12.8 µM |  |  | 6.1 µM | 12.3 µM | 0.443 µM | 10.3 µM | 6.79 µM | 13.2 µM | 1.19 µM | 9.3 µM | 3.43 µM | 10.7 µM | 7.65 µM | 14.3 µM | 5.25 µM | 11.1 µM
CCOC(=O)C(Cc1c[nH]c2ccc([N+](=O)[O-])cc12)(NC(C)=O)C(=O)OCC | 502 µM | > 1000 µM | 184 µM | > 907 µM | > 714 µM | > 1000 µM | > 1000 µM | > 1000 µM | 59.2 µM | 215 µM | 186 µM | > 1000 µM | 81 µM | > 1000 µM | > 546 µM | > 1000 µM | 75.3 µM | > 1000 µM |  | 
COc1ccc2c(c1O)C(=O)C(CCC(=O)O)CC2 (stereo not given) |  | > 100 µM |  | > 100 µM |  |  |  | > 100 µM |  | > 100 µM |  | > 100 µM |  |  |  |  |  | > 100 µM |  | > 100 µM
O=C(NCCc1ccccc1)C(c1ccccc1)(c1ccccc1)c1ccccc1 | 1.8 µM | 5.96 µM | 26 µM | > 100 µM | 3.38 µM | 44.2 µM | 5.91 µM | > 100 µM | > 100 µM | > 100 µM | 1.86 µM | 9.42 µM | 26 µM | > 100 µM |  |  | 5.78 µM | > 100 µM | 38.7 µM | > 100 µM
CC(=O)[O-].CC(=O)[O-].O=C(N/N=C/c1cc(Cl)cc(Cl)c1O)c1ccncc1.[Ni+2] |  | > 100 µM |  | > 100 µM |  |  |  | > 100 µM |  | > 100 µM |  | > 100 µM |  |  |  | > 100 µM |  | 80.8 µM |  | 45.3 µM
C=CCCCn1ccc2ccccc21 |  | > 100 µM |  | > 100 µM |  |  |  | > 100 µM |  | > 100 µM |  | > 100 µM |  |  |  | > 100 µM |  | > 100 µM |  | > 100 µM
CCCCCCCCCCCCCCCCOCC(CN(C)CCN(C)C)OCCCCCCCCCCCCCCCC (stereo not given) |  | > 100 µM |  | > 100 µM |  |  |  | > 100 µM |  | > 100 µM |  | > 100 µM |  |  |  | > 100 µM |  | > 100 µM |  | > 100 µM
C[N+](C)(C)CC(=O)N/N=C(\CCC(=O)NCCc1ccccc1)CC(=O)c1ccccc1 |  | > 100 µM |  | > 100 µM |  |  |  | > 100 µM |  |  |  | > 100 µM |  |  |  | > 100 µM |  | > 100 µM |  | > 100 µM
C#Cc1c(C)c(/C=C/C(C)=C/C=C/C(C)=C/C(=O)OC)n(C)c1C |  |  |  | > 100 µM |  |  |  | > 100 µM |  | > 100 µM |  | > 100 µM |  |  |  |  |  | > 100 µM |  | > 100 µM
Cc1nnc(N=Nc2c(O)[nH]c3c(Cl)cc(Cl)cc23)n1N |  | > 100 µM |  | > 100 µM |  |  |  | > 100 µM |  |  |  | > 100 µM |  |  |  | > 100 µM |  | > 100 µM |  | > 100 µM
O=C1Nc2cc(Cl)ccc2N=CC1NC(=O)C(c1ccccc1)c1ccccc1Cl (stereo not given) |  | > 100 µM |  | > 100 µM |  |  |  | > 100 µM |  | > 100 µM |  | > 100 µM |  |  |  | > 100 µM |  | > 100 µM |  | > 100 µM
COCc1c(CO)cnc(C)c1OC1OC(CO)C(O)C(O)C1O (stereo not given) |  | > 100 µM |  | > 100 µM |  |  |  | > 100 µM |  | > 100 µM |  |  |  |  |  | > 100 µM |  | > 100 µM |  | 
